≈ marks a conversion by molar mass, not a printed value.
What was measured:
[1] = test system: alternate splicing of MCL1 and BCL-X in CLL-B cells; test: RT-PCR analysis of alternate splicing (AS); type: cell-based, human (CLL patients); settings: for alternate splicing (AS) events: H2A as unspliced loading control
[2] = test system: intron retention in DNAJB1, ARF4, PRPF4, RIOK3, SF3A1, and U2AF2 in primary CLL-B cells; test: RT-PCR / qRT-PCR analysis of intron retention (IR); type: cell-based; settings: six genes, 4 h treatment, RNU6A and GAPDH as controls
Description: CLL-B (5×10^6 cells/well) were treated with a given dose of compound from a DMSO stock solution over 4 h. RNA isolation and cDNA preparation, PCR reaction was performed in 20 μL of reaction volume as described previously.^S3 PCR conditions give by incubation at 94° C. for 3 min; 35 cycles of 94° C. for 30 s, 55-60° C. (annealing temperature: 55° C. for GAPDH, 53.6° C. for RNU6A, 58° C. for DNAJB1, 54° C. for SF3A1, 55° C. for PRPF4, 55° C. for ARF4, and 55° C. for U2AF2) for 30 s, and 72° C. for 1 min; followed by 72° C. for 5 min. PCR products were separated on a 2% agarose gel and stained with ethidium bromide.
cDNA was prepared using identical methods as used for RT-PCR analysis. The amount of unspliced RNA for different genes was determined using Power SYBR Green PCR master mix (Applied Biosystems) by qRT-PCR using specific primers designed for detection of the intron of each gene (Table 2). The qPCR was performed using 5 pM of each primer on 20 ng of the obtained cDNA. PCR conditions were as follows: one cycle of 50° C. for 2 min (UDG Incubation), one cycle of 95° C. for 10 min (UDG Inactivation), followed by 95° C. for 15 sec; 60° C. for 30 s for 40 cycles and adding a step for dissociation using a 7900 HT Fast Real Time PCR System (Applied Biosystems). Unspliced RNA levels were calculated using 2-ΔΔCT method.^S4 GAPDH was used as a control for normalization.

[3] = test system: primary CLL-B cells; test: In vitro cytotoxicity, specific induced apoptosis (% SIA), flow cytometry; type: cell-based, human (CLL patients); settings: for IC50: 48 h
Source text: Peripheral blood mononuclear cells (PBMC) from CLL patients were obtained from the CLL Research Consortium (CRC) tissue bank. This protocol was approved by the institutional review board (IRB) of the University of California, San Diego. Blood samples were taken from two CLL patients after written informed consent for blood sample collection and confirmation of diagnosis for CLL diseases, The PBMCs were separated from heparinized venous blood by density gradient centrifugation using Ficoll-Hypaque media (GE Healthcare). The samples with >95% positively for leukemic B cells was confirmed by staining for CD5 and CD19 followed by assessment using flow cytometry. CLL-B cells were maintained in RPMI 1640 medium supplemented with 10% FBS, 2 mM L-glutamine, and 100 U/mL of penicillin and 100 μg/mL of streptomycin at 37° C. in an atmosphere containing 5% CO2.
The CLL-B cells (3×10^5 cells) were treated for 48 h with 10, 100, 300, and 1000 nM of 1a, 1b, 2 or 19 at 37° C. in an atmosphere containing 5% CO2. Fludarabine (F-ara-A) dosed at 10 μM was used as a control. The cells were centrifuged and labeled with CD19/CD5/DiOC6 and subjected to flow cytometry. The data was analyzed using FlowJo software. […] The dose-response curves were plotted to determine IC50 values using the GraphPad Prism version 6.0c software.

[4] = Solubility by capillary NMR with solvent 13C-satellites (QSCS); type: physicochemical
Source text: (§1) Early studies indicate that 2 was more soluble and stable in aqueous buffers than FD-895 (1a).

[5] = Stability in aqueous buffer by NMR monitoring; type: physicochemical; settings: after 744 h (1 month), D2O/DMSO-d6 (10:1) at 37° C.
Source text: as §1

[6] = primary CLL-B cells from two CLL patients

Compound	alternate splicing (AS) events [1]	splice modulation via intron retention (IR) [2]	IC50 ([3]; Homo sapiens, primary CLL-B cells, both sets of cells)	MCL1 long (anti-apoptotic) and short (pro-apoptotic) isoform expression [1]	solubility (soluble up to) ([4]; D2O/DMSO-d6 (10:1) at 23° C.)	IC50 [3, 6]	solubility ([4]; 23 °C, aqueous with cosolvent or surfactant or cyclodextrin)	IC50 ([3]; Homo sapiens, primary CLL-B cells from two CLL patients)	loss of activity when compared to FD-895 (1a) ([3]; primary CLL-B cells, IC50 based)	decomposition (stability) [5]
CC[C@H](OC)[C@@H](C)/C=C/[C@H](O)[C@@H](C)/C=C/C=C(\C)[C@H]1O[C@H](OC)[C@H](OC)[C@@H](OC)[C@@H]1OC [Alkene 19, (2E,4E,6S,7S,8E,10S,11S)-11-methoxy-6,10-dimethyl-2-((2R,3R,4S,5R,6S)-3,4,5,6-tetramethoxytetrahydro-2H-pyran-2-yl)trideca-2,4,8-trien-7-ol]	did not induce AS	inactive for all six genes	> 50 µM							
CCC(OC)C(C)C1OC1C(O)C(C)/C=C/C=C(\C)C1OC(=O)CC(O)CCC(C)(O)C(OC(C)=O)/C=C/C1C (stereo not drawn) [Compound 1a, FD-895, reference compound]				decrease in the long (anti-apoptotic) form and increased the expression of short (pro-apoptotic) form of MCL1	15 ± 5 mM (≈ 8.5 mg/mL)	0.0541 ± 0.0075 µM				
CC[C@H](OC)[C@@H](C)[C@H]1O[C@@H]1[C@H](O)[C@@H](C)/C=C/C=C(\C)[C@H]1O[C@H](OC)[C@H](OC)[C@@H](OC)[C@@H]1OC [Compound 2, (1R,2S,3E,5E)-1-((2R,3R)-3-((2R,3S)-3-methoxypentan-2-yl)oxiran-2-yl)-2-methyl-6-((2R,3R,4S,5R,6S)-3,4,5,6-tetramethoxytetrahydro-2H-pyran-2-yl)hepta-3,5-dien-1-ol]	induced alternate splicing (AS) events	complementary splice modulation in all six genes		decrease in the long (anti-apoptotic) form and increased the expression of short (pro-apoptotic) form of MCL1			95 ± 5 mM (≈ 44.9 mg/mL)	0.153 ± 0.0118 µM	~3 fold	no signs of decomposition
pladienolide B [Compound 1b, reference compound]				decrease in the long (anti-apoptotic) form and increased the expression of short (pro-apoptotic) form of MCL1		0.0844 ± 0.0012 µM				
